Results as given in patent US9790228B2, “Heterocyclic kinase inhibitors” (Intellikine LLC, priority 2008, dated 2017).

Assays:
Balb/c splenic B cells = assay: B cell activation and proliferation assay (Alamar Blue); assay type: cell-based, mouse; details: Mus musculus, B-cell
Protocol: The ability of one or more subject compounds to inhibit B cell activation and proliferation is determined according to standard procedures known in the art. For example, an in vitro cellular proliferation assay is established that measures the metabolic activity of live cells. The assay is performed in a 96 well microtiter plate using Alamar Blue reduction. Balb/c splenic B cells are purified over a Ficoll-Paque™ PLUS gradient followed by magnetic cell separation using a MACS B cell Isolation Kit (Miletenyi). Cells are plated in 90 ul at 50,000 cells/well in B Cell Media (RPMI+10% FBS+Penn/Strep+50 uM bME+5 mM HEPES). A compound disclosed herein is diluted in B Cell Media and added in a 10 ul volume. Plates are incubated for 30 min at 37 C and 5% CO2 (0.2% DMSO final concentration). A 50 ul B cell stimulation cocktail is then added containing either 10 ug/ml LPS or 5 ug/ml F(ab′)2 Donkey anti-mouse IgM plus 2 ng/ml recombinant mouse IL4 in B Cell Media. Plates are incubated for 72 hours at 37° C. and 5% CO2. A volume of 15 uL of Alamar Blue reagent is added to each well and plates are incubated for 5 hours at 37 C and 5% CO2. Alamar Blue fluoresce is read at 560Ex/590Em, and IC50 or EC50 values are calculated using GraphPad Prism 5.

p110β/p85α = p110β/p85α (Homo sapiens, UniProt P42338); assay: PI3K β inhibition assay (TLC lipid kinase or HTRF); assay type: biochemical; details: read-out: PI3K β IC50
In short: (§1)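 IC50 from TLC lipid kinase assay (25 mM HEPES pH 7.4, 10 mM MgCl2, 100 μg/ml phosphatidylinositol, 10 or 100 μM γ-32P-ATP, 5 min RT, phosphorimager) at 10–12 two-fold dilutions, or HTRF (10 μM PIP2, 10 μM ATP, 1 h RT) measuring PIP3 by TR-FRET; 2% DMSO final.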

p110δ/p85α = p110δ/p85α (Homo sapiens (Human), UniProt O00329); assay: PI3K δ inhibition assay (TLC lipid kinase or HTRF); assay type: biochemical
In short: as §1

p110α/p85α = p110α/p85α (Homo sapiens (Human), UniProt P42336); assay: PI3K α inhibition assay (TLC lipid kinase or HTRF); assay type: biochemical
In short: as §1

p110γ = p110γ (Homo sapiens (Human), UniProt P48736); assay: PI3K γ inhibition assay (TLC lipid kinase or HTRF); assay type: biochemical
In short: as §1

p110δ/p85α, sequence (O00329 whole entry): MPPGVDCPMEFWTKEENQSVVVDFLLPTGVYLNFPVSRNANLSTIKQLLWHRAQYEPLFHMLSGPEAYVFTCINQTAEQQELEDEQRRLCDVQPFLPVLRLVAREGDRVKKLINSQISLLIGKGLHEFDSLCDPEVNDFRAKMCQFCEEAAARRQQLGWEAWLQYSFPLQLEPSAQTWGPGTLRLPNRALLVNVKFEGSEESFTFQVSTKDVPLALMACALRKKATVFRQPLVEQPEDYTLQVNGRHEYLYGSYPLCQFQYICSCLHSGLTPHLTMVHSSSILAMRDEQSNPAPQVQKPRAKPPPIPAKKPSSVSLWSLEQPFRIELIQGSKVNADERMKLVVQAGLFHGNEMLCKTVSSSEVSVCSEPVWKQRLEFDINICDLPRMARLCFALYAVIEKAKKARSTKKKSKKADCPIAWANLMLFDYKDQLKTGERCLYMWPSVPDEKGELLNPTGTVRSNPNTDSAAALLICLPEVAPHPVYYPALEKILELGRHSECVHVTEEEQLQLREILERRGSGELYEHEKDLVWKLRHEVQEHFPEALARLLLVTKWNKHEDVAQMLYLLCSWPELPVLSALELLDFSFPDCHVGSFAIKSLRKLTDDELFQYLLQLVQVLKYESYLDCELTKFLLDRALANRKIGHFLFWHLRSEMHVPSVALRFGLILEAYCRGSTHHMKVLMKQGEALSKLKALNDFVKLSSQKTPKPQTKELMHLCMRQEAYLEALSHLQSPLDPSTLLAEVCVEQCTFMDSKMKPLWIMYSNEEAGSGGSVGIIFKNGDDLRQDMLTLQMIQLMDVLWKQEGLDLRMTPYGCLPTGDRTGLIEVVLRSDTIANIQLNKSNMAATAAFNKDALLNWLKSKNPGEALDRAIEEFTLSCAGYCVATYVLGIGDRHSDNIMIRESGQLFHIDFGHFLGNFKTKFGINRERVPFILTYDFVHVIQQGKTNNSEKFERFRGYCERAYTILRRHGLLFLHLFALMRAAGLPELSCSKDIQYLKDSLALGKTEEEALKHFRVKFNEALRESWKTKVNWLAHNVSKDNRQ
p110δ/p85α, sequence (P27986 whole entry partner): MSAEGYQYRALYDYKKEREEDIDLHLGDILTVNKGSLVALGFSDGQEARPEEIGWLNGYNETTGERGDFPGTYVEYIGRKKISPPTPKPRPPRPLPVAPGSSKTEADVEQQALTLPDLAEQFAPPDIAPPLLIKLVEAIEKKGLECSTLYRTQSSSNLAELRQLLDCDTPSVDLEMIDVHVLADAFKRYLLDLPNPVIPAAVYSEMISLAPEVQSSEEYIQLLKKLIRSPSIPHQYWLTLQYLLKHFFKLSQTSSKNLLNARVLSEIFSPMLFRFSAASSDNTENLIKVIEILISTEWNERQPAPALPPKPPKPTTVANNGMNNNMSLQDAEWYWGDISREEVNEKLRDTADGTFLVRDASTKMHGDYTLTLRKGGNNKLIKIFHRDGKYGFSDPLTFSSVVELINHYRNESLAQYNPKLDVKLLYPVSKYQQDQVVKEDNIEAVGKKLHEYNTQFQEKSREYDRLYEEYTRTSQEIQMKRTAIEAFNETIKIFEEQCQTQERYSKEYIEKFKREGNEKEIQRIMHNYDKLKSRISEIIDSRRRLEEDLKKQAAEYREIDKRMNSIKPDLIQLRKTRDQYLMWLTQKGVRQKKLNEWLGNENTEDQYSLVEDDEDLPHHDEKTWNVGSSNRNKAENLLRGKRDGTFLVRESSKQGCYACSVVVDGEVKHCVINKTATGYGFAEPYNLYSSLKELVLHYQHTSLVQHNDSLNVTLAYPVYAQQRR
p110γ, sequence (P48736 whole entry): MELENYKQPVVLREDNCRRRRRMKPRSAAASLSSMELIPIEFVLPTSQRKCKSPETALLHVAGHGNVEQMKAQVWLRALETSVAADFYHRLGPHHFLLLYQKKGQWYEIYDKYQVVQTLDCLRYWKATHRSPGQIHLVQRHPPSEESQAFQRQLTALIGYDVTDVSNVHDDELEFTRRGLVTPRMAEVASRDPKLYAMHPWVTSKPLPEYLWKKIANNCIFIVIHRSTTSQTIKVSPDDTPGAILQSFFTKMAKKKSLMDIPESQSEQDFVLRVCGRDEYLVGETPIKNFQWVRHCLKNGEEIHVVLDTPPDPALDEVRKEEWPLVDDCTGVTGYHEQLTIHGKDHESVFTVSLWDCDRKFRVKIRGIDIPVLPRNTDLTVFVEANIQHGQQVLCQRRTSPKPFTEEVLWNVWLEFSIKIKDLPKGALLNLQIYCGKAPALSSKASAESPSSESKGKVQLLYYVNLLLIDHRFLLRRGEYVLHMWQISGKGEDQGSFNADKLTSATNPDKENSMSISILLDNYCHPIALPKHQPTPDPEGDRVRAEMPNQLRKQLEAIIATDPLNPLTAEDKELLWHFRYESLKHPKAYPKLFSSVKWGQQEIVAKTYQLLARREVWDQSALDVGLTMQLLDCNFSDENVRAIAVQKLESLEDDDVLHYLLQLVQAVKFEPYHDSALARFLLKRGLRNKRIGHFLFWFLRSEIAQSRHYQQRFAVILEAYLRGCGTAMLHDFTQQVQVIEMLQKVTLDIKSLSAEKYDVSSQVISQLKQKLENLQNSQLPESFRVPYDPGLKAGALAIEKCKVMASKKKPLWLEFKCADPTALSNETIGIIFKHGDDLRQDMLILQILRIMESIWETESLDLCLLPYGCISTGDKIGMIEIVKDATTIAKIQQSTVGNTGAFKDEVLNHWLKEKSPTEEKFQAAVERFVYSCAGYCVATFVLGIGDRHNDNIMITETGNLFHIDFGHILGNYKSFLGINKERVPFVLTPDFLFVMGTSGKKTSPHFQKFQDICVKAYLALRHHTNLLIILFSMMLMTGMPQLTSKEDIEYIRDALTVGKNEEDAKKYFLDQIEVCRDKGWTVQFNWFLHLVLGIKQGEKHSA
p110α/p85α, sequence (P42336 whole entry): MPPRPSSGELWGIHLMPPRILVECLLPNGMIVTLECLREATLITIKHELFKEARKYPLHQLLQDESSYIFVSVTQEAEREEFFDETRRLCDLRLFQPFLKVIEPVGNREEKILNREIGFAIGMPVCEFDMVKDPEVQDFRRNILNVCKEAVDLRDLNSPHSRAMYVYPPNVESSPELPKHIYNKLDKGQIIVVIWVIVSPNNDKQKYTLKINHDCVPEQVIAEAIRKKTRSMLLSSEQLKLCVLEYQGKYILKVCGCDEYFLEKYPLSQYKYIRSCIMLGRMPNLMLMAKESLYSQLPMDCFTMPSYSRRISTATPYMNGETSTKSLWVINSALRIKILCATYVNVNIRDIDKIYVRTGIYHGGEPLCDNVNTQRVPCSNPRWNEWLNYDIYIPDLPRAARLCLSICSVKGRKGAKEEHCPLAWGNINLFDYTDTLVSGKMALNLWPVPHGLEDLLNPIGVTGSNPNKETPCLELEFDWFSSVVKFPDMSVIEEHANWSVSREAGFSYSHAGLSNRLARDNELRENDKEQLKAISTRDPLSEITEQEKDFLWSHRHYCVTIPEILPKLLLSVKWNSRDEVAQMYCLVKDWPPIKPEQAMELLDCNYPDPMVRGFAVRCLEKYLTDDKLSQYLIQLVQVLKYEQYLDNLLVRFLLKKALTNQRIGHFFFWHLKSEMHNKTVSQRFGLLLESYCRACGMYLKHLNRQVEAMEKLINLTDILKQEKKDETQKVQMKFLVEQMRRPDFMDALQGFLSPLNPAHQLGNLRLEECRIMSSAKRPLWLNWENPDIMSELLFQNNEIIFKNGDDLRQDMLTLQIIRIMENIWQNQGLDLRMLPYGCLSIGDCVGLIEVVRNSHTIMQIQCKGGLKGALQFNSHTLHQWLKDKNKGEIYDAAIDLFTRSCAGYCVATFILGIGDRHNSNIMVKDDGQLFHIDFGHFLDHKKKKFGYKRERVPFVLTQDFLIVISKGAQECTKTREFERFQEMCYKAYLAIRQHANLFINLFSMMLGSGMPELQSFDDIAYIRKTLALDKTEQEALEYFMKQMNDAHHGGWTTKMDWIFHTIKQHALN
p110α/p85α, sequence (P27986 whole entry partner): as the sequence (P27986 whole entry partner) above
p110β/p85α, sequence (P42338 whole entry, looked up): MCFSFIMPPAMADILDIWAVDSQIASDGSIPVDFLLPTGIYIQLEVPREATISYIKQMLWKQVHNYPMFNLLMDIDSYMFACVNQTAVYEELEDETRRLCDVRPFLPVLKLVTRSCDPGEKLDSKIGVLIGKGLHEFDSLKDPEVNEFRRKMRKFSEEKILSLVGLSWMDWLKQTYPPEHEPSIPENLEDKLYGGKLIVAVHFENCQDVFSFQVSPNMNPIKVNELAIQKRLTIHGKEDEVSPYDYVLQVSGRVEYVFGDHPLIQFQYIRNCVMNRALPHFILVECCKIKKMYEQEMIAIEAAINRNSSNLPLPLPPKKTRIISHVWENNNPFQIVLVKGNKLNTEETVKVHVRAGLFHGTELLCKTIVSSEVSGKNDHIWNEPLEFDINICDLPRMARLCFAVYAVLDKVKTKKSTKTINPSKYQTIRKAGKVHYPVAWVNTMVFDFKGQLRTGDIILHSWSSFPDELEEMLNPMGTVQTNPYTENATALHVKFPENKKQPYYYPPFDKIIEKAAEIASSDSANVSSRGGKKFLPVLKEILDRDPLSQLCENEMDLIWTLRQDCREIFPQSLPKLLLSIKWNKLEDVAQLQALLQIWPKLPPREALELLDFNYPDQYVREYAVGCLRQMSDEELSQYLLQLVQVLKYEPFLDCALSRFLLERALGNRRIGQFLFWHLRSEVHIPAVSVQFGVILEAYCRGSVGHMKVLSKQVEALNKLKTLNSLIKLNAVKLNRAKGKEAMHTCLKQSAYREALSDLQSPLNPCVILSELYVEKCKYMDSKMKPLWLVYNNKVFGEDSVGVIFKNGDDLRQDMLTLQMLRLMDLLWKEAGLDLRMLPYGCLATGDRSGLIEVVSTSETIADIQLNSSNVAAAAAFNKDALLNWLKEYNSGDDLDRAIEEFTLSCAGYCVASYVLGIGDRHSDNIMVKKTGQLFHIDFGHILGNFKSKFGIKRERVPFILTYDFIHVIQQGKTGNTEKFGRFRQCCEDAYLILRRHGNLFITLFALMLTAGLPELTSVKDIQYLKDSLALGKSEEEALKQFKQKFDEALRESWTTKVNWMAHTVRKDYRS

Row | Structure (SMILES) | EC50 (Balb/c splenic B cells) | IC50 (p110β/p85α) | IC50 (p110δ/p85α) | IC50 (p110α/p85α) | IC50 (p110γ)
1 | Nc1ncnc2c1c(-c1cccc(O)c1)nn2Cc1cc2ccccc2nc1N1CCOCC1 [Compound 64] | < 100 nM | > 1000 nM | < 100 nM | > 1000 nM | 100 to 1000 nM
2 | CCN(CC)c1nc2ccccc2cc1Cn1nc(-c2cc(O)cc(F)c2)c2c(N)ncnc21 [Compound 68] | < 100 nM | 100 to 1000 nM | < 100 nM | > 1000 nM | 100 to 1000 nM
3 | CC(C)N1CCN(c2nc3ccccc3cc2Cn2nc(-c3cc(O)cc(F)c3)c3c(N)ncnc32)CC1 [Compound 69] | < 100 nM | > 1000 nM | < 100 nM | > 1000 nM | > 1000 nM
4 | CC(=O)Nc1nc2ccc(-c3nn(Cc4cc5ccccc5nc4N4CCN(C)CC4)c4ncnc(N)c34)cc2s1 [Compound 70] | < 100 nM | < 100 nM | < 100 nM | 100 to 1000 nM | 100 to 1000 nM
5 | CC(c1cc2ccccc2nc1-c1ccccc1)n1nc(C#C[C@@H](C)O)c2c(N)ncnc21 (stereo partly shown) [Compound 71] | 100 to 1000 nM | > 1000 nM | < 100 nM | > 1000 nM | > 1000 nM
6 | CC(c1cc2ccccc2nc1N1CCN(C)CC1)n1nc(-c2cccc(O)c2)c2c(N)ncnc21 (stereo not shown) [Compound 72] | < 100 nM | 100 to 1000 nM | < 100 nM | > 1000 nM | > 1000 nM
7 | CC(c1cc2ccccc2nc1N1CCN(C)CC1)n1nc(-c2cc(O)cc(F)c2)c2c(N)ncnc21 (stereo not shown) [Compound 73] | < 100 nM | < 100 nM | < 100 nM | > 1000 nM | > 1000 nM
8 | CN1CCN(c2nc3ccccc3cc2Cn2nc(-c3cnc4[nH]ccc4c3)c3c(N)ncnc32)CC1 [Compound 74] | < 100 nM | 100 to 1000 nM | < 100 nM | > 1000 nM | > 1000 nM
9 | Nc1ncnc2c1c(-c1cc(O)cc(F)c1)nn2Cc1cc2ccccc2nc1NCCN1CCOCC1 [Compound 75] | < 100 nM | > 1000 nM | < 100 nM | > 1000 nM | > 1000 nM
10 | Nc1ccnc2c1c(-c1cccc(O)c1)nn2Cc1cc2ccccc2nc1-c1cccnc1 [Compound 77] | < 100 nM | > 1000 nM | < 100 nM | > 1000 nM | > 1000 nM
11 | Cc1ccncc1-c1nc2ccccc2cc1Cn1nc(-c2cccc(O)c2)c2c(N)ncnc21 [Compound 78] | 100 to 1000 nM | > 1000 nM | < 100 nM | > 1000 nM | > 1000 nM
12 | Nc1nc2ccc(-c3nn(Cc4cc5ccccc5nc4N4CCCC4)c4ncnc(N)c34)cc2s1 [Compound 79] | < 100 nM | > 1000 nM | < 100 nM | < 100 nM | < 100 nM
13 | CN1CCN(c2nc3ccccc3cc2Cn2nc(-c3ccc4cc(N)sc4c3)c3c(N)ccnc32)CC1 [Compound 80] | < 100 nM | < 100 nM | < 100 nM | < 100 nM | < 100 nM
14 | Nc1ncnc2c1c(-c1ccc3cn[nH]c3c1)nn2CC1=Cc2ccccc2NC1N1CCCC1 (stereo not shown) [Compound 81] | 100 to 1000 nM | > 1000 nM | < 100 nM | > 1000 nM | > 1000 nM
15 | CC(Nc1ncnc2[nH]cnc12)c1cc2ccccc2nc1N1CCN(C)CC1 (stereo not shown) [Compound 82] | < 100 nM | > 1000 nM | < 100 nM | > 1000 nM | > 1000 nM
16 | CC(=O)Nc1nc2ccc(-c3nn(Cc4cc5ccccc5nc4-c4ccccc4F)c4ncnc(N)c34)cc2s1 [Compound 83] | < 100 nM | > 1000 nM | < 100 nM | > 1000 nM | < 100 nM
17 | CC(=O)Nc1nc2ccc(-c3nn(Cc4cc5ccccc5nc4-c4ccccc4C)c4ncnc(N)c34)cc2s1 [Compound 84] | < 100 nM | > 1000 nM | < 100 nM | > 1000 nM | < 100 nM
18 | Nc1nc2ccc(-c3nn(Cc4cc5ccccc5nc4-c4ccccc4F)c4ncnc(N)c34)cc2s1 [Compound 85] | < 100 nM | > 1000 nM | < 100 nM | 100 to 1000 nM | < 100 nM
19 | Cc1ccccc1-c1nc2ccccc2cc1Cn1nc(-c2ccc3cc(N)sc3c2)c2c(N)ncnc21 [Compound 86] | 100 to 1000 nM | > 1000 nM | < 100 nM | > 1000 nM | < 100 nM
20 | CC(=O)Nc1nc2ccc(-c3nn(Cc4cc5ccccc5nc4-c4ccccc4)c4ncnc(N)c34)cc2s1 [Compound 92] | < 100 nM | > 1000 nM | < 100 nM | > 1000 nM | < 100 nM
21 | Nc1nc2ccc(-c3nn(Cc4cc5ccccc5nc4-c4ccccc4)c4ncnc(N)c34)cc2s1 [Compound 94] | 100 to 1000 nM | > 1000 nM | < 100 nM | > 1000 nM | < 100 nM
22 | Nc1ncnc2c1c(-c1cc(O)cc(F)c1)nn2Cc1cc2c(nc1-c1ccccc1F)CCC2 [Compound 101] | 100 to 1000 nM | > 1000 nM | 100 to 1000 nM | > 1000 nM | > 1000 nM
23 | Nc1ncnc2c1c(-c1cc(O)cc(F)c1)nn2Cc1nc2ccccc2nc1N1CCCC1 [Compound 104] | < 100 nM | > 1000 nM | < 100 nM | > 1000 nM | 100 to 1000 nM
24 | Nc1ncnc2c1c(-c1cccc(O)c1)nn2Cc1nc2ccccc2nc1N1CCCC1 [Compound 105] | 100 to 1000 nM | > 1000 nM | < 100 nM | > 1000 nM | 100 to 1000 nM
25 | Cc1ccccc1-c1nc2ccccc2nc1Cn1nc(-c2cc(O)cc(F)c2)c2c(N)ncnc21 [Compound 107] | < 100 nM | > 1000 nM | < 100 nM | > 1000 nM | > 1000 nM
26 | Nc1nc2ccc(-c3nn(Cc4cc5ccccc5nc4N4CCOCC4)c4ncnc(N)c34)cc2s1 [Compound 129] | < 100 nM | 100 to 1000 nM | < 100 nM | < 100 nM | < 100 nM
27 | CC(=O)Nc1nc2ccc(-c3nn(Cc4cc5ccccc5nc4N(C)C)c4ncnc(N)c34)cc2s1 [Compound 130] | < 100 nM | < 100 nM | < 100 nM | < 100 nM | < 100 nM
28 | Cc1ccccc1-c1nc2ccccc2cc1Cn1nc(-c2ccc3nc(N)ccc3c2)c2c(N)ncnc21 [Compound 131] | 100 to 1000 nM | > 1000 nM | < 100 nM | 100 to 1000 nM | < 100 nM
29 | Cc1ccccc1-c1nc2ccccc2cc1Cn1nc(-c2ccc3nc(N)ncc3c2)c2c(N)ncnc21 [Compound 132] | < 100 nM | 100 to 1000 nM | < 100 nM | < 100 nM | < 100 nM
